Measurements reported in ChEMBL document CHEMBL4033658, “Design and expeditious synthesis of organosilanes as potent antivirals targeting multidrug-resistant influenza A viruses” (Eur J Med Chem, 2017).

test system: Influenza A virus; test: Inhibition of Influenza A virus AM2-S31N mutant proton channel expressed in Xenopus laevis frog oocytes at 100 uM after 2 mins by electrophysiological two-electrode voltage clamp assay; type: cell-based

Structure (SMILES) | inhibition [%]
CC(C)(C)c1ccc(CNC23CC4CC(CC(O)(C4)C2)C3)cc1 | 75.4
C[Si](C)(C)c1ccc(CNC23CC4CC(CC(C4)C2)C3)cc1 | 77.5
C[Si](C)(C)c1ccc(CNC23CC4CC(CC(O)(C4)C2)C3)cc1 | 86.7
CC(C)(C)c1ccc(CNC23CC4CC(CC(C4)C2)C3)cc1 | 72.6
CC(C)[Si](c1ccc(CNC23CC4CC(CC(O)(C4)C2)C3)cc1)(C(C)C)C(C)C | 33.6
C[Si](C)(C)c1ccc(CNC23CC4CC(CC(C4)C2)C3)nc1 | 81.3
C[Si](C)(c1ccccc1)c1ccc(CNC23CC4CC(CC(O)(C4)C2)C3)cc1 | 84.9
